# In patent US20220280486A1, “COMBINED CANCER THERAPY INVOLVING CHEMICAL ACTIVATION OF INTEGRINS AND TARGETED CELL IMMUNOTHERAPY” (The Regents of the University of California, priority 2019, published 2022):
# “Also recorded” adds a separate entry of the source.
# Key:
# [1] = tested on: RAW264.7 macrophages; test: Engulfment of supported lipid bilayer-coated silica beads by macrophages (confocal quantification); type: cell-based; details: for engulfment of IgG-coated beads in the absence of CD47: manganese treatment, IgG titration
# Protocol: 8.6×10^8 silica beads with a 5.02 μm diameter (10 μl of 10% solids, Bangs Labs, Catalog #SS05N) were washed three times with PBS, mixed with 1 mM SUVs in PBS and incubated at room temperature for 0.5-2 hours with end-over-end mixing to allow for bilayer formation. Beads were then washed three times with PBS to remove excess SUVs and incubated in 100 μl of 0.2% casein (Sigma, catalog #C5890) in PBS for 15 min before protein coupling. […] Purified CD47^ext-His10 was added at […]. Proteins were coupled to the bilayer for 1 hour at room temperature with end-over-end mixing.
# Unless otherwise noted, macrophages remained in culture media (DMEM with 10% heat inactivated serum) throughout the experiment. ˜8×10^5 beads were added to well and engulfment was allowed to proceed for 30 min. Cells were fixed with 4% PFA and stained with CellMask (ThermoFisher, catalog #C10045) without membrane permeabilization to label cell boundaries.
# [2] = tested on: complement-opsonized CD47+ mouse red blood cells; details: 1 mM manganese
# Protocol: For the mouse red blood cell internalization assay, 30,000 RAW264.7 macrophages (ATCC) were plated in one well of a 96-well glass bottom MatriPlate (Brooks, MGB096-1-2-LG-L) between 12 and 24 hours prior to the experiment. Mouse red blood cells (RBCs) (Innovative Research, 88R-M001) were washed into PBS and stained with CSFE (Thermo Fisher, C34554) or Alexa Fluor 488 NHS Ester (ThermoFisher, A20000) for 1 hr at room temperature. RBCs were then opsonized with C3bi as previously described (Chow et al., 2004). Briefly, RBCs were incubated with anti-mouse IgM (MyBioSource, MBS524107) for 1 hour at 37° C. A portion of RBCs were separated for IgM controls, and the remaining RBCs were incubated with C5 deficient serum (Sigma-Aldrich, C1163) for 1 hour at 37° C. Macrophages were washed into serum-free HEPES imaging buffer and incubated with 150 ng/mL PMA and 1 mM Manganese or water. ˜1×10^6 RBCs were added to each well and engulfment was allowed to proceed for 1 hour in incubator. Cells were washed with PBS, unengulfed RBCs were lysed with water for 2 min, and cells were fixed with 4% PFA. Remaining non-lysed, non-engulfed RBCs were stained with APC anti-iC3b antibody (Biolegend, 1:200 dilution, 846106) for 30 minutes. Macrophages were stained with CellMask orange (ThermoFisher, 1:5,000 dilution) and Hoechst (Invitrogen, H3570, 1:1,000 dilution) for 15 minutes. […]
# [3] = tested on: L1210 murine leukemia cells; test: Whole cell internalization assay, 8 hr timelapse imaging; type: cell-based, mouse; details: 100 μM manganese, bone marrow derived macrophages
# Protocol: For timelapse imaging, 30,000 primary bone marrow derived macrophages infected with GFP-CAAX were plated in a 96-well glass bottom MatriPlate (Brooks, Catalog #MGB096-1-2-LG-L). 2 hours prior to imaging, cells were washed into serum-free, phenol free DMEM for imaging. Manganese (SigmaAldrich, M8054) was added at 100 μM 30 min prior to imaging. When indicated, CD47 function-blocking antibody clone miap301 (Biolegend, 127520) was used at […]. 100,000 H2B-mCherry expressing L1210 cells were added and the co-culture was imaged for 8 hr.
smiles,measurement,setting,value
"[Mn+2] [manganese, Manganese]",engulfment of IgG beads with versus without CD47,"[1]; macrophages treated with 1 mM manganese, beads with IgG and CD47 or non-signaling CD47 F37D,T115K",engulfed beads with a similar efficiency whether or not CD47 was conjugated to the supported lipid bilayer
same,engulfment of IgG-coated beads in the absence of CD47,[1],did not trigger bead engulfment on its own or dramatically enhance engulfment of IgG-coated beads in the absence of CD47
same,engulfment of IgG-coated beads in the absence of CD47,[1]; listed as Mn2+,did not dramatically enhance engulfment
same,bead engulfment triggered on its own,"[1]; manganese, no IgG",did not trigger bead engulfment on its own
same,engulfment of control IgM-treated RBCs,[2],not control IgM-treated RBCs
same,engulfment of complement-opsonized RBCs,"[2]; RAW264.7 macrophages, 1 hour",dramatically increased engulfment of complement-opsonized RBCs
same,macrophages engulfing a cancer cell,[3],increased the ability of macrophages to engulf cancer cells; also recorded: allowed for engulfment of whole cancer cells; also recorded: can drive engulfment of whole cancer cells
